Drawing on US7902226B2, “Dehalogeno-compounds” (Daiichi Pharmaceutical Co., Ltd., priority 2000, dated 2011), this text covers MIC and melting point for 15 molecules.

In one series the test system is Pr. vulgalis, 08601. Briefly: Antibacterial activity (MIC), standard method of the Japan Society of Chemotherapy. Type of series: cell-based. On the procedure: (§1) Antibacterial activities of the compounds of this invention were measured in accordance to the standard method designated by the Japan Society of Chemotherapy, with the results shown as MIC values (microgram/ml) units in the following table. For comparison with the MIC values of the compounds of this invention, MIC values of levofloxacin (LVFX), ciprofloxacin (CPFX) and 7-[3-(R)-(1-aminocyclopropyl)pyrrolidin-1-yl]-6-fluoro-1-[2-(S)-fluoro-1-(R)-cyclopropyl]-8-methyl-1,4-dihydro-4-oxoquinoline-3-carboxylic acid (Reference drug 1), which is described in PCT/JP96/00208, are also shown in the table.

The next series relates to Ps. aeruginosa, 32121. The series is described as above. The format is cell-based. The note with it: Pseudomonas aeruginosa. On the procedure:
as §1

For the next series, the system named is S. flexneri, 2A 5503. The description is as above. Type of series: cell-based. Particulars: Shigella flexneri, 2A5503. On the procedure:
as §1

Another series has as its system Ser. marcescens, 10100. Described as above. Type of series: cell-based. The note with it: Serratia marcescens. On the procedure:
as §1

A further series relates to K. pneumoniae, Type 1. Described as above. The format is cell-based. The note with it: Klebsiella pneumoniae, TYPE1. The protocol: as §1
Series [1] relates to Ps. maltophilia, IID-1275. Described as above. The note with it: Stenotrophomonas maltophilia, IID1275. The format is cell-based. The protocol:
as §1

In another series the test system is Ps. aeruginosa, 32104. The series is described as above. The format is cell-based. Particulars: Pseudomonas aeruginosa. The protocol: as §1
The test system of a further series is S. aureus, 209P. The series is described as above. The format is cell-based. The note with it: Staphylococcus aureus. On the procedure: as §1
For the next series, the system named is Str. pneumoniae J24. The description is as above. The format is cell-based. Particulars: Streptococcus pneumoniae. On the procedure:
as §1

For a further series, the system named is S. epidermidis, 56500. The description is as above. Type of series: cell-based. Particulars: Staphylococcus epidermidis. On the procedure: as §1
Another series has as its system Str. pyogenes, G-36. Described as above. The note with it: Streptococcus pyogenes, G36. The format is cell-based. On the procedure: as §1
The next series relates to S. aureus, 870307. Described as above. The format is cell-based. The note with it: Staphylococcus aureus. The protocol:
as §1

Series [2] has as its system Str. faecalis, ATCC 19433. The series is described as above. Type of series: cell-based. The note with it: Enterococcus faecalis, ATCC19433. The protocol:
as §1

The test system of the next series is E. coli, NIHJ. The series is described as above. Type of series: cell-based. The note with it: Escherichia coli. The protocol:
as §1

Each structure is given as a SMILES string. ≈ marks a conversion by molar mass, not a printed value. Structures can show the parent of a compound that is named as a salt. Bounds are passed on as bounds.

Consider `COc1c(N2CC[C@@H](C3(N)CC3)C2)ccc2c(=O)c(C(=O)O)cn([C@@H]3C[C@@H]3F)c12` [Example 2, 7-[3-(R)-(1-aminocyclopropyl)pyrrolidin-1-yl]-1-[2-(S)-fluoro-1-(R)-cyclopropyl]-1,4-dihydro-8-methoxy-4-oxoquinoline-3-carboxylic acid], for which the MIC – broadly, the smallest concentration in the dilution series that meets the test's criterion for growth inhibition – against Pr. vulgalis, 08601 was 0.012 µg/mL (≈ 0.0299 µM); with Ps. aeruginosa, 32121, 0.05 µg/mL (≈ 0.125 µM); against S. flexneri, 2A 5503 it was 0.012 µg/mL (≈ 0.0299 µM); in the series on Ser. marcescens, 10100, 0.1 µg/mL (≈ 0.249 µM); with K. pneumoniae, Type 1 it was 0.05 µg/mL (≈ 0.125 µM); in series [1], 0.2 µg/mL (≈ 0.498 µM). The MIC is 0.2 µg/mL (≈ 0.498 µM) against Ps. aeruginosa, 32104; at most 0.003 µg/mL in the series with S. aureus, 209P; 0.006 µg/mL (≈ 0.0149 µM) against Str. pneumoniae J24; 0.012 µg/mL (≈ 0.0299 µM) against S. epidermidis, 56500; 0.006 µg/mL (≈ 0.0149 µM) in the series on Str. pyogenes, G-36; 0.05 µg/mL (≈ 0.125 µM) against S. aureus, 870307. In addition, the MIC was 0.025 µg/mL (≈ 0.0623 µM) in [2] and at most 0.003 µg/mL with E. coli, NIHJ.

Take `C[C@H]1COc2c(N3CC[C@@H](C4(N)CC4)C3)ccc3c(=O)c(C(=O)O)cn1c23` (as salt: salt) [Example 9, 10-[3-(R)-(1-aminocyclopropyl)pyrrolidin-1-yl]-2,3-dihydro-3-(S)-methyl-7-oxo-7H-pyrido[1,2,3-de][1,4]benzoxazine-6-carboxylic acid]: the melting point – broadly, the temperature of the solid-liquid transition – is 249 to 252 °C (dec.).

In turn, `NC1([C@@H]2CCN(c3ccc4c(=O)c(C(=O)O)cn([C@@H]5C[C@@H]5F)c4c3Cl)C2)CC1` [Example 16, 7-[3-(R)-(1-aminocyclopropyl)pyrrolidin-1-yl]-8-chloro-1-[2-(S)-fluoro-1-(R)-cyclopropyl]-1,4-dihydro-4-oxoquinoline-3-carboxylic acid] displayed a melting point of 128 to 130 °C.

For `NC1([C@@H]2CCN(c3ccc4c(=O)c(C(=O)O)cn(C5CC5)c4c3OC(F)F)C2)CC1` [Example 6, 7-[3-(R)-(1-aminocyclopropyl)pyrrolidin-1-yl]-1-cyclopropyl-8-difluoromethoxy-1,4-dihydro-4-oxoquinoline-3-carboxylic acid], the melting point is 206 to 207.5 °C.

Take `COc1c(N2CC[C@@H](C3(N)CC3)C2)cc(N)c2c(=O)c(C(=O)O)cn([C@@H]3C[C@@H]3F)c12` [Example 8, 5-amino-7-[3-(R)-(1-aminocyclopropyl)pyrrolidin-1-yl]-1-[2-(S)-fluoro-1-(R)-cyclopropyl]-1,4-dihydro-8-methoxy-4-oxoquinoline-3-carboxylic acid]: the melting point was 172 to 178 °C (dec.).

For `C[C@H]1COc2c(N3CCN(C)CC3)c(F)cc3c(=O)c(C(=O)O)cn1c23` [LVFX, levofloxacin, reference compound], the minimum inhibitory concentration (MIC) in the series with Pr. vulgalis, 08601 is 0.012 µg/mL (≈ 0.0332 µM); with Ps. aeruginosa, 32121, 0.1 µg/mL (≈ 0.277 µM); in the series on S. flexneri, 2A 5503 it was 0.025 µg/mL (≈ 0.0692 µM); in the series on Ser. marcescens, 10100, 0.1 µg/mL (≈ 0.277 µM); against K. pneumoniae, Type 1, 0.1 µg/mL (≈ 0.277 µM); in series [1], 0.39 µg/mL (≈ 1.08 µM). The MIC is 0.2 µg/mL (≈ 0.553 µM) in the series on Ps. aeruginosa, 32104; 0.2 µg/mL (≈ 0.553 µM) against S. aureus, 209P; 0.78 µg/mL (≈ 2.16 µM) in the series with Str. pneumoniae J24; 0.39 µg/mL (≈ 1.08 µM) with S. epidermidis, 56500; 0.2 µg/mL (≈ 0.553 µM) in the series on Str. pyogenes, G-36; over 6.25 µg/mL against S. aureus, 870307. Also, the MIC in series [2] came to 0.78 µg/mL (≈ 2.16 µM); in the series on E. coli, NIHJ, 0.012 µg/mL (≈ 0.0332 µM).

Consider `CNC1([C@@H]2CCN(c3ccc4c(=O)c(C(=O)O)cn5c4c3OC[C@@H]5C)C2)CC1` [Example 13, 2,3-dihydro-3-(S)-methyl-10-[3-(R)-[1-(methylamino)cyclopropyl]pyrrolidin-1-yl]-7-oxo-7H-pyrido[1,2,3-de][1,4]benzoxazine-6-carboxylic acid], for which the melting point lay within 227 to 229 °C.

`N#Cc1c(N2CC[C@@H](C3(N)CC3)C2)ccc2c(=O)c(C(=O)O)cn([C@@H]3C[C@@H]3F)c12` [Example 18, 7-[3-(R)-(1-aminocyclopropyl)pyrrolidin-1-yl]-8-cyano-1-[2-(S)-fluoro-1-(R)-cyclopropyl]-1,4-dihydro-4-oxoquinoline-3-carboxylic acid]: the melting point is 138 to 140 °C.

For the molecule `Cc1c(N2CC[C@@H](C3(N)CC3)C2)cc(O)c2c(=O)c(C(=O)O)cn([C@@H]3C[C@@H]3F)c12` [Example 17, 7-[3-(R)-(1-aminocyclopropyl)pyrrolidin-1-yl]-1-[2-(S)-fluoro-1-(R)-cyclopropyl]-5-hydroxy-8-methyl-1,4-dihydro-4-oxoquinoline-3-carboxylic acid], the melting point was in the range of 203 to 206 °C.

With `NC1([C@@H]2CCN(c3ccc4c(=O)c(C(=O)O)cn([C@@H]5C[C@@H]5F)c4n3)C2)CC1` [Example 4, 7-[3-(R)-(1-aminocyclopropyl)pyrrolidin-1-yl]-1-[2-(S)-fluoro-1-(R)-cyclopropyl]-1,4-dihydro-4-oxo-1,8-naphthylidine-3-carboxylic acid], the melting point was 216 to 218 °C.

`O=C(O)c1cn(C2CC2)c2cc(N3CCNCC3)c(F)cc2c1=O` [CPFX, ciprofloxacin, reference compound]: the minimum inhibitory concentration (MIC) is at most 0.003 µg/mL against Pr. vulgalis, 08601; 0.025 µg/mL (≈ 0.0754 µM) with Ps. aeruginosa, 32121; 0.006 µg/mL (≈ 0.0181 µM) in the series with S. flexneri, 2A 5503; 0.025 µg/mL (≈ 0.0754 µM) against Ser. marcescens, 10100; 0.025 µg/mL (≈ 0.0754 µM) against K. pneumoniae, Type 1; 0.78 µg/mL (≈ 2.35 µM) in series [1]. Besides, the MIC in the series on Ps. aeruginosa, 32104 amounted to 0.005 µg/mL (≈ 0.0151 µM); in the series on S. aureus, 209P it was 0.1 µg/mL (≈ 0.302 µM); with Str. pneumoniae J24 it was 0.1 µg/mL (≈ 0.302 µM); in the series on S. epidermidis, 56500 it was 0.2 µg/mL (≈ 0.604 µM); in the series with Str. pyogenes, G-36, 1.56 µg/mL (≈ 4.71 µM); against S. aureus, 870307 it was 3.13 µg/mL (≈ 9.45 µM). Also, the MIC is 0.78 µg/mL (≈ 2.35 µM) in series [2] and at most 0.003 µg/mL in the series on E. coli, NIHJ.

Regarding `Cc1c(N2CC[C@@H](C3(N)CC3)C2)cc(N)c2c(=O)c(C(=O)O)cn([C@@H]3C[C@@H]3F)c12` [Example 7, 5-amino-7-[3-(R)-(1-aminocyclopropyl)pyrrolidin-1-yl]-1-[2-(S)-fluoro-1-(R)-cyclopropyl]-1,4-dihydro-8-methyl-4-oxoquinoline-3-carboxylic acid], the melting point is 240 to 242 °C (dec.).

With `Cc1c(N2CC[C@@H](C3(N)CC3)C2)ccc2c(=O)c(C(=O)O)cn([C@@H]3C[C@@H]3F)c12` (as salt: HCl) (hydrate or solvate) [Example 1, 7-[3-(R)-(1-aminocyclopropyl)pyrrolidin-1-yl]-1-[2-(S)-fluoro-1-(R)-cyclopropyl]-1,4-dihydro-8-methyl-4-oxoquinoline-3-carboxylic acid], the melting point fell in the range of 228 to 230 °C.

Molecule `COc1c(N2CC[C@@H](C3(N)CCC3)C2)ccc2c(=O)c(C(=O)O)cn([C@@H]3C[C@@H]3F)c12` (hydrate or solvate) [Example 19, 7-[3-(R)-(1-aminocyclobutyl)pyrrolidin-1-yl]-1-[2-(S)-fluoro-1-(R)-cyclopropyl]-8-methoxy-1,4-dihydro-4-oxoquinoline-3-carboxylic acid] showed a melting point of 174 °C.

Take `NC1([C@@H]2CCN(c3ccc4c(=O)c(C(=O)O)cn([C@@H]5C[C@@H]5F)c4c3)C2)CC1` [Example 5, 7-[3-(R)-(1-aminocyclopropyl)pyrrolidin-1-yl]-1-[2-(S)-fluoro-1-(R)-cyclopropyl]-1,4-dihydro-4-oxoquinoline-3-carboxylic acid]: the melting point lay within 251 to 253 °C.
